Toxic doses and inconclusive results are not listed.
Tested on: BDF1 mice, P388 leukemia ip, median survival T/C
Test: NCI In Vivo Anticancer Drug Screen. Data for tumor model P388 Leukemia (intraperitoneal) in B6D2F1 (BDF1) mice
Details: endpoint: median survival time, higher = longer survival
In short: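 Compound-treated tumour-bearing mice were compared with vehicle-treated controls. Survival was recorded, and the value is the treated-group measurement divided by the control-group measurement (T/C).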

[1] = dose: 100.0 mg/kg/injection, schedule: Q01DX009 (ip), vehicle: saline with Tween-80
[2] = dose: 200.0 mg/kg/injection, schedule: Q01DX009 (ip), vehicle: saline with Tween-80
[3] = dose: 400.0 mg/kg/injection, schedule: Q01DX009 (ip), vehicle: saline with Tween-80
[4] = dose: 100.0 mg/kg/injection, schedule: Q04DX003 (ip), vehicle: Klucel (hydroxypropylcellulose) (HPC)
[5] = dose: 400.0 mg/kg/injection, schedule: Q04DX003 (ip), vehicle: Klucel (hydroxypropylcellulose) (HPC)
[6] = dose: 50.0 mg/kg/injection, schedule: Q01DX009 (ip), vehicle: saline with Tween-80
[7] = dose: 12.5 mg/kg/injection, schedule: Q01DX009 (ip), vehicle: saline with Tween-80
[8] = dose: 200.0 mg/kg/injection, schedule: Q04DX003 (ip), vehicle: Klucel (hydroxypropylcellulose) (HPC)
[9] = dose: 50.0 mg/kg/injection, schedule: Q04DX003 (ip), vehicle: Klucel (hydroxypropylcellulose) (HPC)

## CN1CCOP1OCC(F)(F)F (configuration not stated)
dose: 25.0 mg/kg/injection, schedule: Q01DX005 (ip), vehicle: saline
  T/C: 104 % of control
dose: 50.0 mg/kg/injection, schedule: Q01DX005 (ip), vehicle: saline
  T/C: 93 % of control
dose: 100.0 mg/kg/injection, schedule: Q01DX005 (ip), vehicle: saline
  T/C: 109 % of control

## O=CN(O)CC(=O)O.[Cu]
dose: 1.16 mg/kg/injection, schedule: Q04DX003 (ip), vehicle: saline
  T/C: 95 % of control
dose: 1.77 mg/kg/injection, schedule: Q04DX003 (ip), vehicle: saline
  T/C: 95 % of control
dose: 2.65 mg/kg/injection, schedule: Q04DX003 (ip), vehicle: saline
  T/C: 90 % of control
dose: 3.9 mg/kg/injection, schedule: Q04DX003 (ip), vehicle: saline
  T/C: 90 % of control
dose: 6.0 mg/kg/injection, schedule: Q04DX003 (ip), vehicle: saline
  T/C: 100 % of control
dose: 9.0 mg/kg/injection, schedule: Q04DX003 (ip), vehicle: saline
  T/C: 113 % of control
dose: 10.0 mg/kg/injection, schedule: Q01DX001 (ip), vehicle: saline
  T/C: 100 % of control
dose: 13.0 mg/kg/injection, schedule: Q04DX003 (ip), vehicle: saline
  T/C: 104 % of control
dose: 20.0 mg/kg/injection, schedule: Q01DX001 (ip), vehicle: saline
  T/C: 118 % of control

## CCOC(=O)C(C)C(OCC)OCC (configuration not stated)
[1]
  T/C: 95 % of control
dose: 100.0 mg/kg/injection, schedule: Q04DX003 (ip), vehicle: saline with Tween-80
  T/C: 100 % of control
[2]
  T/C: 109 % of control
dose: 200.0 mg/kg/injection, schedule: Q04DX003 (ip), vehicle: saline with Tween-80
  T/C: 91 % of control
[3]
  T/C: 109 % of control
dose: 400.0 mg/kg/injection, schedule: Q04DX003 (ip), vehicle: saline with Tween-80
  T/C: 100 % of control

## COc1ccc(/C=N/n2c(=O)[nH]nc(C)c2=O)c(OC)c1OC
[1]
  T/C: 100 % of control
[2]
  T/C: 122 % of control
[3]
  T/C: 95 % of control

## C[C@H]1CN1C1=CC(=O)C(N2C[C@@H]2C)=CC1=O
dose: 0.03 mg/kg/injection, schedule: Q01DX009 (ip), vehicle: saline
  T/C: 109 % of control
dose: 0.12 mg/kg/injection, schedule: Q01DX009 (ip), vehicle: saline
  T/C: 118 % of control
dose: 0.5 mg/kg/injection, schedule: Q01DX009 (ip), vehicle: Klucel (hydroxypropylcellulose) (HPC)
  T/C: 160 % of control
dose: 0.5 mg/kg/injection, schedule: Q01DX009 (ip), vehicle: saline
  T/C: 191 % of control
dose: 1.0 mg/kg/injection, schedule: Q01DX009 (ip), vehicle: Klucel (hydroxypropylcellulose) (HPC)
  T/C: 160 % of control
dose: 1.0 mg/kg/injection, schedule: Q01DX009 (ip), vehicle: saline
  T/C: 220 % of control
dose: 2.0 mg/kg/injection, schedule: Q01DX009 (ip), vehicle: Klucel (hydroxypropylcellulose) (HPC)
  T/C: 200 % of control
dose: 4.0 mg/kg/injection, schedule: Q01DX009 (ip), vehicle: Klucel (hydroxypropylcellulose) (HPC)
  T/C: 190 % of control

## CCOc1ccc(/C=N/Nc2ccc([N+](=O)[O-])cc2)cc1OC
[1]
  T/C: 100 % of control
[2]
  T/C: 115 % of control
[3]
  T/C: 115 % of control

## ClC1=C(Br)C(Br)(Br)C(=C(Br)Br)C1(Br)Br
[1]
  T/C: 100 % of control
[4]
  T/C: 90 % of control
[2]
  T/C: 109 % of control
[3]
  T/C: 104 % of control
[5]
  T/C: 100 % of control

## COc1cccc(C)c1NC1=NCCO1
dose: 1.56 mg/kg/injection, schedule: Q04DX003 (ip), vehicle: saline with Tween-80
  T/C: 117 % of control

## CC(C)(C)OC(=O)NCC(=O)NC(Cc1c[nH]c2ccccc12)C(=O)O (configuration not stated)
dose: 50.0 mg/kg/injection, schedule: Q01DX005 (ip), vehicle: saline with Tween-80
  T/C: 102 % of control
dose: 100.0 mg/kg/injection, schedule: Q01DX005 (ip), vehicle: saline with Tween-80
  T/C: 95 % of control
dose: 200.0 mg/kg/injection, schedule: Q01DX005 (ip), vehicle: saline with Tween-80
  T/C: 95 % of control

## Cc1ccc(CNc2ccc([N+](=O)[O-])cc2)cc1
[6]
  T/C: 104 % of control
[1]
  T/C: 90 % of control
[2]
  T/C: 104 % of control

## O=C1C(Br)=C(Br)C(=O)C1(Br)Br
dose: 8.25 mg/kg/injection, schedule: Q01DX009 (ip), vehicle: saline with Tween-80
  T/C: 100 % of control
[7]
  T/C: 109 % of control
dose: 18.75 mg/kg/injection, schedule: Q01DX009 (ip), vehicle: saline with Tween-80
  T/C: 113 % of control

## CCC(C(OC(=O)Nc1ccc(Cl)c(Cl)c1)c1ccc(Cl)cc1)C(O)(C(F)(F)F)C(F)(F)F (configuration not stated)
[4]
  T/C: 100 % of control
[8]
  T/C: 95 % of control
[5]
  T/C: 91 % of control

## Cc1ccc(Nc2c3ccccc3nc3ccccc23)cc1
dose: 100.0 mg/kg/injection, schedule: Q01DX001 (ip), vehicle: Klucel (hydroxypropylcellulose) (HPC)
  T/C: 109 % of control
dose: 200.0 mg/kg/injection, schedule: Q01DX001 (ip), vehicle: Klucel (hydroxypropylcellulose) (HPC)
  T/C: 118 % of control
dose: 400.0 mg/kg/injection, schedule: Q01DX001 (ip), vehicle: Klucel (hydroxypropylcellulose) (HPC)
  T/C: 113 % of control

## COC1=C(N=[N+]=[N-])C(=O)C(OC)=C(N=[N+]=[N-])C1=O
dose: 10.0 mg/kg/injection, schedule: Q04DX003 (ip), vehicle: saline
  T/C: 100 % of control
dose: 20.0 mg/kg/injection, schedule: Q04DX003 (ip), vehicle: saline
  T/C: 100 % of control
dose: 22.5 mg/kg/injection, schedule: Q01DX009 (ip), vehicle: saline
  T/C: 114 % of control
dose: 40.0 mg/kg/injection, schedule: Q04DX003 (ip), vehicle: saline
  T/C: 108 % of control
dose: 45.0 mg/kg/injection, schedule: Q01DX009 (ip), vehicle: saline
  T/C: 123 % of control
dose: 90.0 mg/kg/injection, schedule: Q01DX009 (ip), vehicle: saline
  T/C: 114 % of control
dose: 90.0 mg/kg/injection, schedule: Q04DX003 (ip), vehicle: saline
  T/C: 122 % of control

## CCCCCCCCCCCCN(CCC(=O)O)S(=O)(=O)O
dose: 25.0 mg/kg/injection, schedule: Q01DX009 (ip), vehicle: Klucel (hydroxypropylcellulose) (HPC)
  T/C: 95 % of control
dose: 50.0 mg/kg/injection, schedule: Q01DX009 (ip), vehicle: Klucel (hydroxypropylcellulose) (HPC)
  T/C: 104 % of control
dose: 75.0 mg/kg/injection, schedule: Q04DX003 (ip), vehicle: Klucel (hydroxypropylcellulose) (HPC)
  T/C: 100 % of control
dose: 100.0 mg/kg/injection, schedule: Q01DX009 (ip), vehicle: Klucel (hydroxypropylcellulose) (HPC)
  T/C: 90 % of control
dose: 150.0 mg/kg/injection, schedule: Q04DX003 (ip), vehicle: Klucel (hydroxypropylcellulose) (HPC)
  T/C: 100 % of control

## CCCCNC(=O)n1nnc2ccccc21
[6]
  T/C: 89 % of control
[1]
  T/C: 106 % of control
[2]
  T/C: 106 % of control

## CC(=O)Nc1ccc(S(=O)(=O)N(CCO)c2ccccc2)cc1
[7]
  T/C: 104 % of control
dose: 12.5 mg/kg/injection, schedule: Q04DX003 (ip), vehicle: Klucel (hydroxypropylcellulose) (HPC)
  T/C: 100 % of control
dose: 25.0 mg/kg/injection, schedule: Q01DX009 (ip), vehicle: saline with Tween-80
  T/C: 104 % of control
dose: 25.0 mg/kg/injection, schedule: Q04DX003 (ip), vehicle: Klucel (hydroxypropylcellulose) (HPC)
  T/C: 109 % of control
[6]
  T/C: 96 % of control
[9]
  T/C: 109 % of control
[8]
  T/C: 87 % of control

## C[C@@H]1CC[C@@]2(NC1)O[C@H]1C[C@H]3[C@@H]4CC=C5C[C@@H](O)CC[C@]5(C)[C@H]4CC[C@]3(C)[C@H]1[C@@H]2C
[9]
  T/C: 100 % of control
dose: 50.0 mg/kg/injection, schedule: Q04DX003 (ip), vehicle: saline sonified
  T/C: 110 % of control
dose: 88.0 mg/kg/injection, schedule: Q01DX009 (ip), vehicle: saline with Tween-80
  T/C: 86 % of control
[4]
  T/C: 109 % of control
dose: 100.0 mg/kg/injection, schedule: Q04DX003 (ip), vehicle: saline sonified
  T/C: 100 % of control
dose: 132.0 mg/kg/injection, schedule: Q01DX009 (ip), vehicle: saline with Tween-80
  T/C: 118 % of control
[8]
  T/C: 104 % of control
dose: 200.0 mg/kg/injection, schedule: Q04DX003 (ip), vehicle: saline sonified
  T/C: 105 % of control
dose: 300.0 mg/kg/injection, schedule: Q01DX009 (ip), vehicle: saline with Tween-80
  T/C: 95 % of control

## Cc1cc(O)c(C(C)C)cc1S(=O)(=O)O (tested in a mixture with another compound)
dose: 37.5 mg/kg/injection, schedule: Q01DX009 (ip), vehicle: Klucel (hydroxypropylcellulose) (HPC)
  T/C: 95 % of control
[6]
  T/C: 100 % of control
[1]
  T/C: 95 % of control
dose: 150.0 mg/kg/injection, schedule: Q01DX009 (ip), vehicle: Klucel (hydroxypropylcellulose) (HPC)
  T/C: 100 % of control
dose: 150.0 mg/kg/injection, schedule: Q01DX009 (ip), vehicle: saline with Tween-80
  T/C: 150 % of control

## O=C(NC12CC3CC(CC(C3)C1)C2)C(F)(F)F
[6]
  T/C: 98 % of control
[1]
  T/C: 105 % of control
[2]
  T/C: 102 % of control

Reference: PubChem BioAssay AID328 (DTP/NCI, 2004)
